Reference: patent US6642251B1, “Geometrically restricted 2-indolinone derivatives as modulators of protein kinase activity” (Sugen, Inc., priority 1998, dated 2003)

Target: EGFR (Homo sapiens, UniProt P00533)
Experiment: Cellular EGFR assay (cell EGFR)
Format: cell-based
Parameters: expressed in transfected cells; host or cells: NIH 3T3/C7
Conditions: 50% inhibition of target PTK activity
Protocol: EGF Receptor kinase activity in cells genetically engineered to express human EGF-R can be measured as described below:
1. NIH 3T3/C7 cell line (Honegger, et al., Cell 51:199-209, 1987) can be use for this assay.
1. Check seeded cells for contamination using an inverted microscope. Dilute test compounds stock (10 mg/ml in DMSO) 1:10 in DMEM medium, then transfer 5 μl to a test well for a test compounds drug dilution of 1:200 and a final DMSO concentration of 1%. Control wells receive DMSO alone. Incubate in 5% CO2 at 37° C. for one hour.
2. Prepare EGF ligand: dilute stock EGF in DMEM so that upon transfer of 10 μl dilute EGF (1:12 dilution), 25 nM final concentration is attained.
3. Prepare fresh 10 ml HNTG* sufficient for 100 μl per well wherein HNTG* comprises: HNTG stock (2.0 ml), milli-Q H2O (7.3 ml), EDTA, 100 mM, pH 7.0 (0.5 ml), Na3VO4 0.5 M (0.1 ml) and Na4(P2O7), 0.2 M (0.1 ml).
5. After two hours incubation with drug, add prepared EGF ligand to cells, 10 μl per well, to yield a final concentration of 25 nM. Control wells receive DMEM alone. Incubate, shaking, at room temperature, for 5 minutes.
6. Remove test compound, EGF, and DMEM. Wash cells twice with PBS. Transfer HNTG* to cells, 100 μl per well. Place on ice for 5 minutes. Meanwhile, remove blocking buffer from other ELISA plate and wash with TBST as described above.
7. With a pipette tip securely fitted to a micropipettor, scrape cells from plate and homogenize cell material by repeatedly aspirating and dispensing the HNTG* lysis buffer. Transfer lysate to a coated, blocked, and washed ELISA plate. Incubate shaking at room temperature for one hour.
8. Remove lysate and wash 4 times with TBST. Transfer freshly diluted anti-Ptyr antibody to ELISA plate at 100 μl per well. […]
12. The maximal phosphotyrosine signal is determined by subtracting the value of the negative controls from the positive controls. The percent inhibition of phosphotyrosine content for extract-containing wells is then calculated, after subtraction of the negative controls.

EGFR, sequence (P00533 25-1210): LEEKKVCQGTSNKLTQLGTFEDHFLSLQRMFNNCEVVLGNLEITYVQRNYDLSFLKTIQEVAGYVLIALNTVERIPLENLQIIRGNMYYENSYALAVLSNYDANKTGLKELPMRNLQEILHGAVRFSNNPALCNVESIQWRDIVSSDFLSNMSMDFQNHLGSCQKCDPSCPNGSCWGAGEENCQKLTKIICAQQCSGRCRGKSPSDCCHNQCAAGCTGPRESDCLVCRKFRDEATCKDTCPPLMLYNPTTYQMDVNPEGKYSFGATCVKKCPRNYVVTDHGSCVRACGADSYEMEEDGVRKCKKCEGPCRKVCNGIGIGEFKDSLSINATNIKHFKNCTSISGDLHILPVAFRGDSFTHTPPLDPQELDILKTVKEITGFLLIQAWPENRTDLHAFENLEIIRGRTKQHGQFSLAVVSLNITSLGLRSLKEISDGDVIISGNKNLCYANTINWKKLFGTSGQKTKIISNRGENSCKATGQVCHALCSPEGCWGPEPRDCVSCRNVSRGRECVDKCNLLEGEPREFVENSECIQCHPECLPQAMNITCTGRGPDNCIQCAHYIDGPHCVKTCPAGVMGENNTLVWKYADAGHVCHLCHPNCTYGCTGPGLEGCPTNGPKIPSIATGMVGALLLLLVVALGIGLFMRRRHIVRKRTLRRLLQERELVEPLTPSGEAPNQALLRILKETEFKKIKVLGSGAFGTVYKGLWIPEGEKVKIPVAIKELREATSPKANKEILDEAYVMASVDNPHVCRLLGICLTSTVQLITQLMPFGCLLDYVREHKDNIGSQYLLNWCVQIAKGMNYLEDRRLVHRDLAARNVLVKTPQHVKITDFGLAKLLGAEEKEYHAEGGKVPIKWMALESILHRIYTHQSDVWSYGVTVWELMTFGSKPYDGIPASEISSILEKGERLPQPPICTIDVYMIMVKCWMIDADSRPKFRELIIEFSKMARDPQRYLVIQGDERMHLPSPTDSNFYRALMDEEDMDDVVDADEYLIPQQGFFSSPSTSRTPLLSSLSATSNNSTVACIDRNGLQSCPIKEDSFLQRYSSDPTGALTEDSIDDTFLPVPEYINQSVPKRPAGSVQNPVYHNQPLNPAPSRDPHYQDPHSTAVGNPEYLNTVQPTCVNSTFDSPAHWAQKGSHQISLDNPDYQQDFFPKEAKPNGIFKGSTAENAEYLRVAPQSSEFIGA

IC50, > 100 µM:
COc1ccc2c(c1)C(CC(=O)O)C/C2=C1/C(=O)Nc2ccccc21 (stereo not drawn) [Compound 11, [6-Methoxy-3-(2-oxo-1,2-dihydroindol-3-ylidene)-indan-1-yl]acetic Acid]
COc1ccc2c(c1)C(CC(=O)[O-])CC2=C1C(=O)Nc2ccccc21.[Na+] (stereo not drawn) [Compound 13, [6-Methoxy-3-(2-oxo-1,2-dihydroindol-3-ylidene)-indan-1-yl]acetic Acid Sodium Salt]
O=C1Nc2ccccc2/C1=C1\CCc2ccccc21 [Compound 10, 3-Indan-1-ylidene-1,3-dihydroindol-2-one]
